Key:
[1] = target: GST-Alk protein (wild-type form 1058-1620) (Homo sapiens (Human), UniProt Q9UM73); assay: HTRF kinase test with GST-Alk protein, wild-type form (ATP 400 microM, enzyme 2 nM); format: biochemical; details: GST-Alk wild-type form 1058-1620, ATP 400 microM
[2] = target: GST-Alk protein (mutant L1196M 1058-1620) (Homo sapiens (Human), UniProt Q9UM73, L1196M); assay: HTRF kinase test with GST-Alk protein, mutant L1196M (ATP 200 microM, enzyme 1 nM); format: biochemical; details: GST-Alk mutant L1196M 1058-1620, ATP 200 microM
Chain of GST-Alk protein (mutant L1196M 1058-1620) (Q9UM73 1058-1620 L1196M): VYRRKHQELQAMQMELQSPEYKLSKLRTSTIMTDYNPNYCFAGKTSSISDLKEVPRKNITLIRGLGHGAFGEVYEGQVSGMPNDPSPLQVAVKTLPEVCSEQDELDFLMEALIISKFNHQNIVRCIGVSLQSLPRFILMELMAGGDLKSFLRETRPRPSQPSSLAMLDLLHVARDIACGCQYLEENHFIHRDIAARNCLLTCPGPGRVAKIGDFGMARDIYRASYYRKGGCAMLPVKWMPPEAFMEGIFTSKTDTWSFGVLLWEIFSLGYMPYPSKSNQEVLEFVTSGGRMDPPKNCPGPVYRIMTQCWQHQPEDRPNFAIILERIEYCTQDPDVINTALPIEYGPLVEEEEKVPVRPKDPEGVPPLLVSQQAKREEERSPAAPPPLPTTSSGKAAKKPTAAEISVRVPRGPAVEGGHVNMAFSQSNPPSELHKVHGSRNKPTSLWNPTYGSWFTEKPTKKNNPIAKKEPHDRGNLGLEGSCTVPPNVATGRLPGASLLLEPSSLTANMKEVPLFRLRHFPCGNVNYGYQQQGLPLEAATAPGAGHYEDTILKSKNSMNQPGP

Chain of GST-Alk protein (wild-type form 1058-1620) (Q9UM73 1058-1620): as the sequence (Q9UM73 1058-1620 L1196M) above, with M139L counted along it

COc1nc(C)ccc1-c1c(CO)sc2cnc(Nc3cc(C)c(N4CCN(C)CC4)cc3OC(C)C)nc12 [Compound I-191, [7-(2-Methoxy-6-methylpyridin-3-yl)-2-{[5-methyl-4-(4-methylpiperazin-1-yl)-2-(propan-2-yloxy)phenyl]amino}thieno[3,2-d]pyrimidin-6-yl]methanol]
IC50 [1]: 12 nM
IC50 [2]: 14 nM
